Source: patent US5597845A, “Substituted alkyldiamine derivatives” (Merrell Pharmaceuticals Inc., priority 1994, dated 1997)

Key:
NK1 receptor [1] = biological target: T1, NK1 receptor (Cavia porcellus, UniProt P30547); test: Antagonism of iodinated tachykinin binding: NK1 receptor affinity in guinea pig lungs (125I-Bolton Hunter Lys-3 labeled substance P); conditions: 125I-substance P 0.1 nM, 90 min room temperature, mean of several experiments
T1 construct: evaluated in guinea pig lungs; tissue Keystone Biologicals, Cleveland, Ohio; host or cells: guinea pig lung
Experimental: (§1) The NK1 receptor affinity of proposed tachykinin antagonists was evaluated in guinea pig lungs (Keystone Biologicals, Cleveland, Ohio) and affinity for the NK2 receptor evaluated in HSKR-1 cells (which are mouse 3T3 fibroblasts expressing the human jejunal NK2 receptor). Tissues or cells were homogenized with a Polytron in 15 volumes of 50 mM Tris-HCl buffer (pH 7.4, 4° C.) and centrifuged. The pellet was resuspended in Tris-HCl buffer and was centrifuged; the pellet was washed twice by resuspension. The final pellet was resuspended at a concentration of 40 mg/ml for tissues and 20 mg/ml for cells in incubation buffer and remained at room temperature for at least 15 min prior to use. Receptor binding was initiated by addition of 250 ul membrane preparation in duplicate to 0.1 nM of the following radioligands: ^125 I-Bolton Hunter Lys-3 labeled substance P and ^125 iodohistidyl-1-neurokinin A; in a final volume of 500 ul of buffer containing 50 mM Tris-HCl (pH 7.4 at room temperature), 0.1% bovine serum albumin, 2 mM MnCl2, 40 ug/ml bacitracin, 4 μg/ml leupeptin and chymostatin, 1 μM thiorphan and various doses of the putative tachykinin antagonists. Incubations were performed at room temperature for 90 min (NK1 receptor assays) or 2 hr (NK2 receptor assay); binding was terminated by addition of 50 mM Tris-HCl buffer (pH 7.4, 4° C.) and filtration under vacuum through GF/B filters presoaked with 0.1% polyethyleneimine (NK, receptor assays) or 0.5% bovine serum albumin (NK2 receptor assay). Filter bound radioactivity was quantitated in a gamma counter. Nonspecific binding was defined as binding in the presence of 1 μM substance P or neurokinin A. Specific binding was calculated by subtracting nonspecific binding from total binding. Competition of iodinated SP or NKA binding by test compounds or standards was expressed as a percentage of this maximum competition. IC50 values (concentration required to inhibit 50% of receptor binding) were generated for each of the test compounds by nonlinear regression using an iterative curve fitting program (GraphPAD Inplot, San Diego, Calif.).
(§2) IC50 values for some of the compounds of the present invention are found in Table 1 and represent the mean of several experiments.

NK2 receptor = biological target: T2, NK2 receptor (Bos taurus, UniProt P05363); test: Antagonism of tachykinin (NKA)-induced phosphatidylinositol (PI) turnover in vitro, SKLKB82#3 cells; type: cell-based; conditions: NKA agonist, 3 experiments
T2 construct: expressed in transfected cells; host or cells: SKLKB82#3 cells (murine B82 fibroblasts, own knowledge)
T2 sequence (P05363 1-384): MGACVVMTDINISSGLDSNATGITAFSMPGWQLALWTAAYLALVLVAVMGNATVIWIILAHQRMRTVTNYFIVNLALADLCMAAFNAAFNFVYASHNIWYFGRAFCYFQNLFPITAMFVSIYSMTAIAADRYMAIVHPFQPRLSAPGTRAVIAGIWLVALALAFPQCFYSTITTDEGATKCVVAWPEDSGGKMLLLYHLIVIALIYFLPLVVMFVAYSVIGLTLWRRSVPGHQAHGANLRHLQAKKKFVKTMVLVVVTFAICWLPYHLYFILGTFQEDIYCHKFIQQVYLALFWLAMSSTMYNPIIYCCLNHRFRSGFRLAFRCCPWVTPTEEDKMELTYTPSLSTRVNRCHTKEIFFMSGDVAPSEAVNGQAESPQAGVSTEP
Experimental: (§3) Tachykinin-mediated phosphatidylinositol (PI, inositol phosphate) accumulation was measured in UCll or SKLKB82#3 cells in the presence and absence of NK1 or NK2 receptor antagonists, respectively. Tissues were incubated in Krebs-Henseleit buffer at 37° C. with 95% O2 --5% CO2 gassing. Tissues were then incubated with fresh buffer containing 100 μCi of myo-[2-^3 H(N)] inositol at 37° C. for 60 min with gentle gassing. After washing twice in 5 ml room temperature buffer containing 10 mM LiCl, tissues were incubated for 30 min at room temperature with a buffer change at 15 min. […] The third elution was collected and 1 ml counted in 7 ml scintillation fluid. A 50 μl aliquot of the organic (bottom) phase was removed, dried in a scintillation vial and counted in 7 ml scintillation fluid.
(§4) The ratio of DPM in the aqueous phase aliquot (total inositol phosphates) to the DPM in the 50 μl organic phase aliquot (total [^3 H]inositol incorporated) was calculated for each sample. Data are expressed as a percent of agonist-induced accumulation of [^3 H]-inositol phosphates over basal levels. […] Dose-response graphs are constructed and the ability of the test compounds to inhibit tachykinin-induced phosphatidyinositol turnover determined with the aid of a computer program. […]

UCll or SKLKB82#3 cells = test: Phosphatidylinositol (PI) turnover in vitro, UCll or SKLKB82#3 cells, statements not split by receptor; type: cell-based
Experimental: as §3, with “min. Buffer was removed and Krebs-Henseleit buffer (containing 40 μg/ml bacitracin, 4 μg/ml each of leupeptin and chymostatin, 0.1% bovine serum albumin and 10 mM each of thiorphan and LiCl) including the test compound is added. After 15 min, SP was added to UCll cells or NKA to SKLKB82#3 cells at various concentrations to start the reaction. After incubation for 60 min at room temperature the reaction was terminated by addition of 930 μl chloroform: methanol (1:2 by volume) to each tube, followed by 310 μl chloroform and 310 μl doubly distilled water.” for “min.”
as §4, with “program. Data is expressed as percent stimulation of total inositol phosphate accumulation over basal levels and normalized to the maximum response produced by SP.” for “program.”

NK1 receptor [2] = biological target: T3, NK1 receptor (Homo sapiens, UniProt P25103); test: Antagonism of tachykinin (SP)-induced phosphatidylinositol (PI) turnover in vitro, UCll cells; type: cell-based; conditions: SP agonist, 3 experiments
T3 construct: Receptor source for NK1 receptor is UCll cells; endogenous in cells; host or cells: UC11 cells (printed UCll)
Experimental: as §3, §4

[3] = biological target: T4, human jejunal NK2 receptor (Homo sapiens, UniProt P21452); test: Antagonism of iodinated tachykinin binding: NK2 receptor affinity in HSKR-1 cells (125 iodohistidyl-1-neurokinin A); conditions: HSKR-1 cells (mouse 3T3 fibroblasts expressing human jejunal NK2 receptor); 125I-neurokinin A 0.1 nM; 2 hr room temperature; mean of several experiments
T4 construct: expressed in transfected cells; host or cells: HSKR-1 cells (mouse 3T3 fibroblasts)
T4 sequence (P21452 1-398): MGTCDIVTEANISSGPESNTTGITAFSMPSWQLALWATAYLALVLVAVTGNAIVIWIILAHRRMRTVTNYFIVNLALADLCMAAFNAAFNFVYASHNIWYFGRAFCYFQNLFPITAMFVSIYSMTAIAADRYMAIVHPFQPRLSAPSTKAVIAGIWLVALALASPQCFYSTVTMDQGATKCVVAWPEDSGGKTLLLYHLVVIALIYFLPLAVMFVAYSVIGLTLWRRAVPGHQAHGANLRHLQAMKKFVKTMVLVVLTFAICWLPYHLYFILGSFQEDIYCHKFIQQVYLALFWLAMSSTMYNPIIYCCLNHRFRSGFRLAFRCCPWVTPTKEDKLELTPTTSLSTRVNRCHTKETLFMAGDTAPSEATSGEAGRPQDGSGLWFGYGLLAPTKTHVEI
Experimental: as §1, §2

T3 sequence (P25103 whole entry): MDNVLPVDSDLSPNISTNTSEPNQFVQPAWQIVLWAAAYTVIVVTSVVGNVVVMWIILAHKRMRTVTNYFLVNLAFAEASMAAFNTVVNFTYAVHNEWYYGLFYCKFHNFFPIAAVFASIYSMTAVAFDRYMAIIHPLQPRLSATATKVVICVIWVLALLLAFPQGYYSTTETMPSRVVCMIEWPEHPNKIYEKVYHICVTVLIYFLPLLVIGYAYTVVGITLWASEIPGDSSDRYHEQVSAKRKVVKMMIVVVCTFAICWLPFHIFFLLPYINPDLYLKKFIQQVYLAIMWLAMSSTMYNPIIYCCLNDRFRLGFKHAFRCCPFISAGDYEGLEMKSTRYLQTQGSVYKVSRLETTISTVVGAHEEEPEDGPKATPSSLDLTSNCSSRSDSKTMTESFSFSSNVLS
T1 sequence (P30547 whole entry): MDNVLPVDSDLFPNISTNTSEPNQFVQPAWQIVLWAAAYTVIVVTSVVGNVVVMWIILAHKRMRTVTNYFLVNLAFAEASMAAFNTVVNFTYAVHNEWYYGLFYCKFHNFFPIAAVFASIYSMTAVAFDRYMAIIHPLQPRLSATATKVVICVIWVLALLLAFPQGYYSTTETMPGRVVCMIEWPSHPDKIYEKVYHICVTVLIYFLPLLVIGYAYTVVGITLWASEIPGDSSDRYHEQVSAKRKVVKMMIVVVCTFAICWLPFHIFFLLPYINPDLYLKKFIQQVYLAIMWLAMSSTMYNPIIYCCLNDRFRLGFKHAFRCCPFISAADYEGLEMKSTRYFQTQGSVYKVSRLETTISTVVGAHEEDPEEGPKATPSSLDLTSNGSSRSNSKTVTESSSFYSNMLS

In the case of COC(=O)[C@H](Cc1c[nH]c2ccccc12)NCCN[C@@H](Cc1ccc2ccccc2c1)C(=O)N(C)Cc1ccccc1OC [Compound No. 1], the IC50 (NK1 receptor [1]) is reported as 25.7 nM, the “-slope (Schild analysis), NK2 receptor” value (NK2 receptor) is reported as 1.11 and the “pA2, tachykinin-induced PI turnover, NK2 receptor” value (NK2 receptor; Schild analysis) is reported as 6.70. For the same compound, the “slope of the lines obtained by a Schild analysis versus one” value (UCll or SKLKB82#3 cells; Schild analysis, 3 experiments) was “not significantly different from one (1)”, the “PI turnover when administered by itself (agonist activity)” value (UCll or SKLKB82#3 cells; compound alone, no tachykinin agonist) was “no PI turnover” and the mode of antagonism (UCll or SKLKB82#3 cells; from Schild analysis slope) was “competitive antagonist”. The “-slope (Schild analysis), NK1 receptor” value (NK1 receptor [2]) was 1.28, the “pA2, tachykinin-induced PI turnover, NK1 receptor” value (NK1 receptor [2]; Schild analysis) was 7.34 and the IC50 [3] was 609 nM.
